Patent publication US11077128B2, “Selective inhibitors of Alpha2-containing isoforms of Na,K-ATPase and use thereof for reduction of intraocular pressure” (Yeda Research and Development Co. Ltd., priority 2015, dated 2021)

Assays:
Test in all cases: biochemical
[1] = biological target: human Na,K-ATPase α1β1FXYD1 (Homo sapiens (Human), UniProt P05023)
[2] = biological target: human Na,K-ATPase α2β3FXYD1 (Homo sapiens (Human), UniProt P50993); type: biochemical
[3] = biological target: human Na,K-ATPase α2β2FXYD1 (Homo sapiens (Human), UniProt P50993)
[4] = biological target: human Na,K-ATPase α2β1FXYD1 (Homo sapiens, UniProt P50993); type: biochemical

SMILES	Ki [1]	Ki [2]	Ki reduced compared to digoxin [2]	Ki [3]	Ki [4]
CC1CN(CC2CC2)CCC(O[C@@H]2C(C)O[C@@H](OC3C(C)OC(O[C@H]4CC[C@@]5(C)C(CCC6C5CC[C@]5(C)[C@@H](C7=CC(=O)OC7)CC[C@]65O)C4)C[C@@H]3O)C[C@@H]2O)O1 (stereo in doubt) [DtxMcP, 4-((3S,5R,8R,9S,10S,13R,14S,17R)-3-(((2S,4S,5R,6R)-5-(((2S,4S,5S,6R)-5-((4-(cyclopropylmethyl)-2-methyl-1,4-oxazepan-7-yl)oxy)-4-hydroxy-6-methyltetrahydro-2H-pyran-2-yl)oxy)-4-hydroxy-6-methyltetrahydro-2H-pyran-2-yl)oxy)-14-hydroxy-10,13-dimethylhexadecahydro-1H-cyclopenta[a]phenanthren-17-yl)furan-2(5H)-one]	25 ± 4 nM	3.7 ± 0.5 nM	about 10 fold	5.4 ± 1.2 nM	4.2 ± 0.4 nM
CC1CN(C2CCC2)CCC(O[C@@H]2C(C)O[C@@H](OC3C(C)OC(O[C@H]4CC[C@@]5(C)C(CCC6C5CC[C@]5(C)[C@@H](C7=CC(=O)OC7)CC[C@]65O)C4)C[C@@H]3O)C[C@@H]2O)O1 (stereo in doubt) [DtxcB, 4-((3S,5R,8R,9S,10S,13R,14S,17R)-3-(((2S,4S,5R,6R)-5-(((2S,4S,5S,6R)-5-((4-cyclobutyl-2-methyl-1,4-oxazepan-7-yl)oxy)-4-hydroxy-6-methyltetrahydro-2H-pyran-2-yl)oxy)-4-hydroxy-6-methyltetrahydro-2H-pyran-2-yl)oxy)-14-hydroxy-10,13-dimethylhexadecahydro-1H-cyclopenta[a]phenanthren-17-yl)furan-2(5H)-one]	30.7 ± 7.2 nM	4.3 ± 0.6 nM	about 10 fold	5.3 ± 0.8 nM	5.4 ± 0.5 nM
